According to US11802114B2, “Compounds and methods for detection of superoxide” (Promega Corporation, priority 2021, dated 2023):

Assays:
[1] = system: RAW 247.6 macrophage cell line; test: Detection of PMA-induced superoxide production by macrophages; type: cell-based; conditions: 50 μl of 50 μM Compound 18 (FIG. 6A) or 100 μM Compound 20 (FIG. 6B), 2 hours at 37° C.; for luminescence signal with PMA treatment: 20 μM PMA
Experimental: Production of superoxide by macrophages plays an important role in immune response and inflammation. Superoxide is produced by nicotinamide adenine dinucleotide phosphate (NADPH) oxidases (known as NOX enzymes) and is induced by PMA (4β-phorbol-12-myristate-13-acetate). Here is shown an example of measuring PMA-induced superoxide production in RAW 247.6 macrophage cell line. RAW 247.6 cells were plated overnight in DMEM medium with 10% FBS. To start the experiment, the medium was removed, cells were washed once with PBS, and 50 μl of PBS containing 5 mM glucose, 1 mM MgCl2, 0.5 mM CaCl2, and 0.05% BSA was added to the cells in the presence or absence of 20 μM PMA. To measure production of superoxide, 50 μl of 50 μM Compound 18 (FIG. 6A) or 100 μM Compound 20 (FIG. 6B) was added to the cells. Cells were treated for 2 hours at 37° C. with luciferin production measured by adding equal volume of Luciferin Detection Reagent with esterases, and luminescence read after 20 minutes incubation at room temperature.

[2] = system: Human hepatocarcinoma cells (Hep G2); test: Detection of superoxide in cells; type: cell-based; conditions: probe 12.5 uM, 1 hour at 37° C., FIG. 4
Experimental: Human hepatocarcinoma cells (Hep G2) were plated into wells of 96-well white-walled assay tissue culture plates. Plated cells were incubated overnight in a humidified tissue culture incubator at 37° C. with 5% CO2. The following day the superoxide probe, Compound 1 (6-(4-hydroxy-3,5-dimethoxyphenoxy)benzo[d]thiazole-2-carbonitrile), was added to the cells in culture medium at a final concentration of 12.5 uM. Subsequently, dimethoxynaphthoquinone (DMNQ; 50 μM) or antimycin A (10 μM) diluted in culture medium was added to the reaction wells and the assay plate(s) were incubated for 1 hour in a humidified tissue culture incubator at 37° C. with 5% C02. For luciferin detection, the luciferin-utilizing luciferase enzyme, UltraGlo (Promega Corporation), was prepared by mixing Luciferin Detection Reagent (Promega), Reconstitution Buffer (Promega), and d-Cysteine (Promega), and one volume was added to the reaction. The plate was mixed using an orbital plate shaker, and luminescence was measured using a GloMax® luminometer.

superoxide = test: Cell-free detection of and specificity for superoxide (luciferase luminescence); type: biochemical; conditions: probe 25 μM in PBS, FIG. 3
Experimental: The superoxide probe, Compound 1 (6-(4-hydroxy-3,5-dimethoxyphenoxy)benzo[d]thiazole-2-carbonitrile), was diluted into PBS to 25 μM into wells of a 96-well white-walled assay plate. Subsequently, generators of reactive oxygen and nitrogen species were diluted in PBS and added to the assay plate. The plate mixed using an orbital plate shaker for 5 minutes followed by a 30-minute incubation at room temperature protected from light. For luciferin detection, the luciferin-utilizing luciferase enzyme, UltraGlo (Promega Corporation), was prepared by mixing Luciferin Detection Reagent (Promega), Reconstitution Buffer (Promega), and d-Cysteine (Promega), and one volume was added to the reaction. The plate was mixed using an orbital plate shaker, and luminescence was measured using a GloMax® luminometer. Data are shown in FIG. 3; the blank includes PBS only; HX=hypoxanthine; XO=xanthine oxidase; and SOD=superoxide dismutase. […] This signal decreased in the presence of superoxide dismutase, confirming that superoxide is the source of the signal.

[3] = system: RAW 247.6 macrophage cells; test: Detection of superoxide production in kinetic mode (media sampling); type: cell-based; conditions: 50 μM probe, 20 μM PMA, 10, 20, 30 and 60 minutes, FIG. 7
Experimental: RAW 247.6 macrophage cells were plated at 30,000 cells per well overnight in DMEM medium with 10% FBS. The following day, the medium was removed, and cells were washed with PBS. 100 μl PBS containing 5 mM glucose, 1 mM MgCl2, 0.5mM CaCl2, 0.05% BSA, and 50 μM Compound 20 were added to the cells in the presence or absence of 20 μM PMA. The cells were placed back at 37° C. in tissue culture incubator. At different time points (10, 20, 30 and 60 minutes), 10 μl was removed from the samples, mixed with 10 μl of Luciferin Detection Reagent with esterases, and luminescence read following a 20 minute incubation at room temperature.

xanthine oxidase = test: Detection of xanthine oxidase activity in vitro; type: biochemical; conditions: 25 μl of 75 μM probe, FIG. 5
Excerpt: Xanthine oxidase (XO) is an enzyme that catalyzes the oxidation of hypoxanthine or xanthine to uric acid and superoxide. XO is normally found in liver and jejunum and plays an important role in the catabolism of purines. During severe liver damage, xanthine oxidase is released into blood and can be used as a marker for liver damage. Here is shown an example of measuring xanthine oxidase activity using pro-luciferin compounds described herein. Purified xanthine oxidase was 3× fold serially diluted in 0.1M Tris (pH7.5). 25 μl of diluted enzyme was transferred into wells of a 96-well assay plate, and the reaction was started by adding 25 μl of 300 μM xanthine and 25 μl of 75 μM Compound 20. After 10, 20, 30, and 60 minutes incubations at 37° C., 75 μl of Luciferin Detection Reagent containing esterases was added to the samples, and luminescence was read after additional 20 minutes incubation at room temperature.

Compound | luminescence signal with PMA treatment [1] | luminescence signal in the presence of cells compared to medium only control [1] | luminescence signal when cells were treated with DMNQ ([2]; DMNQ 50 μM) | luminescence signal when cells were treated with antimycin A ([2]; antimycin A 10 μM) | luminescence signal in the presence of NONOate (superoxide; 30-minute incubation) | luminescence signal in the presence of Rose Bengal (generates singlet oxygen) (superoxide; 30-minute incubation) | luminescence signal in the presence of hydrogen peroxide (superoxide; 30-minute incubation) | luminescence signal in the presence of sodium nitrite (superoxide; 30-minute incubation) | luminescence signal in the presence of superoxide dismutase (superoxide; HX + XO + SOD) | luminescence signal in the presence of HX and XO (superoxide; hypoxanthine + xanthine oxidase (superoxide generator), 30-minute incubation at room temperature) | luminescence signal over time in cells treated with PMA [3] | increase in luminescence signal versus xanthine oxidase concentration and time (xanthine oxidase; 300 μM xanthine, 10, 20, 30, and 60 minutes at 37° C.) | increase in luminescence signal, dependence on substrate (xanthine oxidase; 25 μl of 300 μM xanthine, serially diluted XO, 37° C.)
CN(CCN(C)C(=O)Oc1ccc2nc(C3=N[C@@H](C(=O)O)CS3)sc2c1)C(=O)Oc1ccc(O)c(O)c1 [Compound 18, (S)-2-(6-(((2-(((3,4-dihydroxyphenoxy)carbonyl)(methyl)amino)ethyl)(methyl)carbamoyl)oxy)benzo[d]thiazol-2-yl)-4,5-dihydrothiazole-4-carboxylic acid] | increased significantly | higher luminescence signal | – | – | – | – | – | – | – | – | – | – | –
COc1cc(Oc2ccc3nc(C#N)sc3c2)cc(OC)c1O [Compound 1, 6-(4-hydroxy-3,5-dimethoxyphenoxy)benzo[d]thiazole-2-carbonitrile] | – | – | increase in signal | increase in signal | Little to no signal | Little to no signal | Little to no signal | Little to no signal | decreased | strong signal | – | – | –
COC(=O)[C@H]1CSC(c2nc3ccc(OC(=O)N(C)CCN(C)C(=O)Oc4ccc(OC(C)=O)c(OC(C)=O)c4)cc3s2)=N1 [Compound 20, (S)-4-(((2-((((2-(4-(methoxycarbonyl)-4,5-dihydrothiazol-2-yl)benzo[d]thiazol-6-yl)oxy)carbonyl)(methyl)amino)ethyl)(methyl)carbamoyl)oxy)-1,2-phenylene diacetate] | increased significantly | higher luminescence signal | – | – | – | – | – | – | – | – | time dependent increase in signal | linear with respect to xanthine oxidase concentration and time | depended on the presence of the xanthine oxidase substrate, xanthine
